Experimental data: ChEMBL document CHEMBL1146164, “Synthesis and evaluation of aminomethyl dihydrocinnamates as a new class of PPAR ligands” (Bioorg Med Chem Lett, 2006)

These compounds were tested against T1, Peroxisome proliferator-activated receptor alpha (Homo sapiens, UniProt Q07869) (assay: Displacement of [3H]2-(4-{2-[3-(2,4-difluoro-phenyl)-1-heptyl-ureido]-ethyl}-phenoxy)-2-methyl-butyric acid from hPPARalpha). Settings: not given.
T1 sequence (Q07869 whole entry): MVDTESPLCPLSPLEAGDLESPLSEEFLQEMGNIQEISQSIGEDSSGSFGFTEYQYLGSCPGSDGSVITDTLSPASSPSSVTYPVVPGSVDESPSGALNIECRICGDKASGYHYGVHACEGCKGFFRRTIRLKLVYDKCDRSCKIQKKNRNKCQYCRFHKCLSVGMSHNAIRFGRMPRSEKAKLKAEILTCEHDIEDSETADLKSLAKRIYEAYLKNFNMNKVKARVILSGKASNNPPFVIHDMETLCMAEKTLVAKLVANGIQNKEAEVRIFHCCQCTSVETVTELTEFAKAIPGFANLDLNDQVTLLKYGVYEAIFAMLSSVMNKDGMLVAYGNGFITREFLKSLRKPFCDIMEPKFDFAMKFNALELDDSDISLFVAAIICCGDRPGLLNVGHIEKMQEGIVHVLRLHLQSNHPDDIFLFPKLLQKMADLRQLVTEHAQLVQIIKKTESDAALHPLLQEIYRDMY

| SMILES | IC50 |
| --- | --- |
| Cc1oc(-c2ccc(-c3ccccc3)cc2)nc1CCOc1ccc(CCC(=O)O)c(CNC(=O)OC(C)C)c1 | 3490 nM |
| Cc1oc(-c2ccccc2)nc1CCOc1ccc(CCC(=O)O)c(CNC(=O)NCc2ccccc2)c1 | > 10000 nM |
| CC(C)(Oc1ccc(C(=O)c2ccc(Cl)cc2)cc1)C(=O)O [FENOFIBRIC ACID] | > 10000 nM |
| Cc1oc(-c2ccccc2)nc1CCOc1ccc(CCC(=O)O)c(CNC(=O)Oc2cnccn2)c1 | 53 nM |
| Cc1oc(-c2ccc(-c3ccccc3)cc2)nc1CCOc1ccc(CCC(=O)O)c(CNC(=O)Oc2cnccn2)c1 | 449 nM |
| Cc1oc(-c2ccc(Oc3ccccc3)cc2)nc1CCOc1ccc(CCC(=O)O)c(CNC(=O)OC(C)C)c1 | 516 nM |
| Cc1sc(N2CCOCC2)nc1CCOc1ccc(CCC(=O)O)c(CNC(=O)OC(C)C)c1 | 1490 nM |
| Cc1oc(-c2ccccc2)nc1CCOc1ccc(CCC(=O)O)c(CNC(=O)OCc2ccccc2)c1 | 441 nM |
| Cc1oc(-c2ccc(-c3ncccn3)cc2)nc1CCOc1ccc(CCC(=O)O)c(CNC(=O)OC(C)C)c1 | 9940 nM |
| Cc1oc(-c2ccccc2)nc1CCOc1ccc(CCC(=O)O)c(CNC(=O)OC(C)C)c1 | 146 nM |
| Cc1oc(-c2ccccc2)nc1CCOc1ccc(CCC(=O)O)c(CNS(=O)(=O)Cc2ccccc2)c1 | 3390 nM |
| Cc1oc(-c2ccccc2)nc1CCOc1ccc(CCC(=O)O)c(CNC(=O)CCc2ccccc2)c1 | 4960 nM |

The compounds below were run on Rattus norvegicus (assay: Reduction of plasma glucose level in orally dosed Zucker diabetic fatty rat). Settings: ZDF, po.
Type: functional

| SMILES | ED50 |
| --- | --- |
| Cc1oc(-c2ccc(-c3ccccc3)cc2)nc1CCOc1ccc(CCC(=O)O)c(CNC(=O)OC(C)C)c1 | 0.02 mg/kg |
| Cc1oc(-c2ccc(-c3ccccc3)cc2)nc1CCOc1ccc(CCC(=O)O)c(CNC(=O)Oc2cnccn2)c1 | 0.03 mg/kg |
| Cc1oc(-c2ccc(Oc3ccccc3)cc2)nc1CCOc1ccc(CCC(=O)O)c(CNC(=O)OC(C)C)c1 | 0.05 mg/kg |
| Cc1sc(N2CCOCC2)nc1CCOc1ccc(CCC(=O)O)c(CNC(=O)OC(C)C)c1 | 0.12 mg/kg |
| Cc1oc(-c2ccc(-c3ncccn3)cc2)nc1CCOc1ccc(CCC(=O)O)c(CNC(=O)OC(C)C)c1 | 0.04 mg/kg |

The compounds below were run against T2, Peroxisome proliferator-activated receptor gamma (Homo sapiens, UniProt P37231). Settings: not given.
T2 sequence (P37231 whole entry): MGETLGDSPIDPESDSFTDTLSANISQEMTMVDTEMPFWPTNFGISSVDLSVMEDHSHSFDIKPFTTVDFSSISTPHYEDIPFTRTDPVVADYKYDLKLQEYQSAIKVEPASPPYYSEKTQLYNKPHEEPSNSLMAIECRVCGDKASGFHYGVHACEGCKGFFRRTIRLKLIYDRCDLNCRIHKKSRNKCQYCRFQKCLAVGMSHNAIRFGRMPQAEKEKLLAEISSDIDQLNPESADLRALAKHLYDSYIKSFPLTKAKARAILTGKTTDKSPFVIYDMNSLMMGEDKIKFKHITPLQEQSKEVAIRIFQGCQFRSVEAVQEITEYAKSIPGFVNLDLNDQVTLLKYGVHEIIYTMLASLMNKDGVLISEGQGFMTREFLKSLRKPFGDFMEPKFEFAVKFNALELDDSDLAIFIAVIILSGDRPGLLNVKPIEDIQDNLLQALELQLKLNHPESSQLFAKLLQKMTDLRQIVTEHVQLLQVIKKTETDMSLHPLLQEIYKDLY

| SMILES | IC50 |
| --- | --- |
| Cc1oc(-c2ccc(-c3ccccc3)cc2)nc1CCOc1ccc(CCC(=O)O)c(CNC(=O)OC(C)C)c1 | 47 nM |
| Cc1oc(-c2ccccc2)nc1CCOc1ccc(CCC(=O)O)c(CNC(=O)NCc2ccccc2)c1 | 706 nM |
| Cc1oc(-c2ccccc2)nc1CCOc1ccc(CCC(=O)O)c(CNC(=O)Oc2cnccn2)c1 | 17 nM |
| Cc1oc(-c2ccc(-c3ccccc3)cc2)nc1CCOc1ccc(CCC(=O)O)c(CNC(=O)Oc2cnccn2)c1 | 26 nM |
| Cc1oc(-c2ccc(Oc3ccccc3)cc2)nc1CCOc1ccc(CCC(=O)O)c(CNC(=O)OC(C)C)c1 | 50 nM |
| Cc1sc(N2CCOCC2)nc1CCOc1ccc(CCC(=O)O)c(CNC(=O)OC(C)C)c1 | 22 nM |
| Cc1oc(-c2ccccc2)nc1CCOc1ccc(CCC(=O)O)c(CNC(=O)OCc2ccccc2)c1 | 91 nM |
| Cc1oc(-c2ccc(-c3ncccn3)cc2)nc1CCOc1ccc(CCC(=O)O)c(CNC(=O)OC(C)C)c1 | 50 nM |
| Cc1oc(-c2ccccc2)nc1CCOc1ccc(CCC(=O)O)c(CNC(=O)OC(C)C)c1 | 26 nM |
| Cc1oc(-c2ccccc2)nc1CCOc1ccc(CCC(=O)O)c(CNS(=O)(=O)Cc2ccccc2)c1 | 72 nM |
| Cc1oc(-c2ccccc2)nc1CCOc1ccc(CCC(=O)O)c(CNC(=O)CCc2ccccc2)c1 | 161 nM |

What follows are compounds tested on Mus musculus (assay: Reduction of plasma glucose level in db/db mouse at 30 mg/kg, po relative to rosiglitazone). Settings: not given.
Type: functional
Set-up: scale not given: the % may be the effect or the level left

| SMILES | Activity |
| --- | --- |
| Cc1oc(-c2ccc(-c3ccccc3)cc2)nc1CCOc1ccc(CCC(=O)O)c(CNC(=O)OC(C)C)c1 | 56% |
| Cc1oc(-c2ccc(-c3ccccc3)cc2)nc1CCOc1ccc(CCC(=O)O)c(CNC(=O)Oc2cnccn2)c1 | 87% |
| Cc1sc(N2CCOCC2)nc1CCOc1ccc(CCC(=O)O)c(CNC(=O)OC(C)C)c1 | 58% |
| Cc1oc(-c2ccc(-c3ncccn3)cc2)nc1CCOc1ccc(CCC(=O)O)c(CNC(=O)OC(C)C)c1 | 52% |
| Cc1oc(-c2ccccc2)nc1CCOc1ccc(CCC(=O)O)c(CNC(=O)OC(C)C)c1 | 58% |

What follows are compounds tested against T3, Peroxisome proliferator-activated receptor alpha (Homo sapiens) (UniProt Q07869) (assay: Activity at human PPARalpha in CV1 cells by CTF assay relative to 2-(4-{2-[3-(2,4-difluoro-phenyl)-1-heptyl-ureido]-ethyl}-phenoxy)-2-methyl-butyric acid). Settings: CV-1.
T3 sequence (whole entry): T1 sequence (Q07869 whole entry)
Type: cell-based

| SMILES | Efficacy |
| --- | --- |
| Cc1oc(-c2ccccc2)nc1CCOc1ccc(CCC(=O)O)c(CNC(=O)NCc2ccccc2)c1 | 5% |
| CC(C)(Oc1ccc(C(=O)c2ccc(Cl)cc2)cc1)C(=O)O [FENOFIBRIC ACID] | 35% |
| Cc1oc(-c2ccccc2)nc1CCOc1ccc(CCC(=O)O)c(CNC(=O)Oc2cnccn2)c1 | 60% |
| Cc1oc(-c2ccc(-c3ccccc3)cc2)nc1CCOc1ccc(CCC(=O)O)c(CNC(=O)Oc2cnccn2)c1 | 68% |
| Cc1oc(-c2ccc(Oc3ccccc3)cc2)nc1CCOc1ccc(CCC(=O)O)c(CNC(=O)OC(C)C)c1 | 46% |
| Cc1sc(N2CCOCC2)nc1CCOc1ccc(CCC(=O)O)c(CNC(=O)OC(C)C)c1 | 37% |
| Cc1oc(-c2ccccc2)nc1CCOc1ccc(CCC(=O)O)c(CNC(=O)OCc2ccccc2)c1 | 54% |
| Cc1oc(-c2ccc(-c3ncccn3)cc2)nc1CCOc1ccc(CCC(=O)O)c(CNC(=O)OC(C)C)c1 | 37% |
| Cc1oc(-c2ccccc2)nc1CCOc1ccc(CCC(=O)O)c(CNC(=O)OC(C)C)c1 | 51% |
| Cc1oc(-c2ccccc2)nc1CCOc1ccc(CCC(=O)O)c(CNS(=O)(=O)Cc2ccccc2)c1 | 33% |
| Cc1oc(-c2ccccc2)nc1CCOc1ccc(CCC(=O)O)c(CNC(=O)CCc2ccccc2)c1 | 32% |

Molecular target: T2, Peroxisome proliferator-activated receptor gamma
Settings: not given
Remark: another data set of the same source

| SMILES | EC50 |
| --- | --- |
| Cc1oc(-c2ccc(-c3ccccc3)cc2)nc1CCOc1ccc(CCC(=O)O)c(CNC(=O)OC(C)C)c1 | 19 nM |
| Cc1oc(-c2ccccc2)nc1CCOc1ccc(CCC(=O)O)c(CNC(=O)NCc2ccccc2)c1 | 2680 nM |
| Cc1oc(-c2ccccc2)nc1CCOc1ccc(CCC(=O)O)c(CNC(=O)Oc2cnccn2)c1 | 7 nM |
| Cc1oc(-c2ccc(-c3ccccc3)cc2)nc1CCOc1ccc(CCC(=O)O)c(CNC(=O)Oc2cnccn2)c1 | 2 nM |
| Cc1oc(-c2ccc(Oc3ccccc3)cc2)nc1CCOc1ccc(CCC(=O)O)c(CNC(=O)OC(C)C)c1 | 2 nM |
| Cc1sc(N2CCOCC2)nc1CCOc1ccc(CCC(=O)O)c(CNC(=O)OC(C)C)c1 | 28 nM |
| Cc1oc(-c2ccccc2)nc1CCOc1ccc(CCC(=O)O)c(CNC(=O)OCc2ccccc2)c1 | 115 nM |
| Cc1oc(-c2ccc(-c3ncccn3)cc2)nc1CCOc1ccc(CCC(=O)O)c(CNC(=O)OC(C)C)c1 | 4 nM |
| Cc1oc(-c2ccccc2)nc1CCOc1ccc(CCC(=O)O)c(CNC(=O)OC(C)C)c1 | 8 nM |
| Cc1oc(-c2ccccc2)nc1CCOc1ccc(CCC(=O)O)c(CNS(=O)(=O)Cc2ccccc2)c1 | 527 nM |
| Cc1oc(-c2ccccc2)nc1CCOc1ccc(CCC(=O)O)c(CNC(=O)CCc2ccccc2)c1 | 1020 nM |

The compounds below were run against T1, Peroxisome proliferator-activated receptor alpha (assay: Activity at human PPARalpha in CV1 cells). Settings: not given.
Type: cell-based, CV-1

| SMILES | EC50 |
| --- | --- |
| Cc1oc(-c2ccc(-c3ccccc3)cc2)nc1CCOc1ccc(CCC(=O)O)c(CNC(=O)OC(C)C)c1 | 845 nM |
| CC(C)(Oc1ccc(C(=O)c2ccc(Cl)cc2)cc1)C(=O)O [FENOFIBRIC ACID] | 2650 nM |
| Cc1oc(-c2ccccc2)nc1CCOc1ccc(CCC(=O)O)c(CNC(=O)Oc2cnccn2)c1 | 35 nM |
| Cc1oc(-c2ccc(-c3ccccc3)cc2)nc1CCOc1ccc(CCC(=O)O)c(CNC(=O)Oc2cnccn2)c1 | 198 nM |
| Cc1oc(-c2ccc(Oc3ccccc3)cc2)nc1CCOc1ccc(CCC(=O)O)c(CNC(=O)OC(C)C)c1 | 78 nM |
| Cc1sc(N2CCOCC2)nc1CCOc1ccc(CCC(=O)O)c(CNC(=O)OC(C)C)c1 | 986 nM |
| Cc1oc(-c2ccccc2)nc1CCOc1ccc(CCC(=O)O)c(CNC(=O)OCc2ccccc2)c1 | 515 nM |
| Cc1oc(-c2ccc(-c3ncccn3)cc2)nc1CCOc1ccc(CCC(=O)O)c(CNC(=O)OC(C)C)c1 | 900 nM |
| Cc1oc(-c2ccccc2)nc1CCOc1ccc(CCC(=O)O)c(CNC(=O)OC(C)C)c1 | 70 nM |
| Cc1oc(-c2ccccc2)nc1CCOc1ccc(CCC(=O)O)c(CNS(=O)(=O)Cc2ccccc2)c1 | 2940 nM |
| Cc1oc(-c2ccccc2)nc1CCOc1ccc(CCC(=O)O)c(CNC(=O)CCc2ccccc2)c1 | 2800 nM |
